Test results from US20140127192A1, “METHOD FOR TREATING OSTEOPOROSIS” (AMGEN INC, priority 2011, published 2014).

Legend:
[1] = system: bone resorption marker (CTX) and bone formation markers (P1NP, BSAP, OC); assay: Bone turnover markers in the same study (serum CTX, P1NP, BSAP, OC); assay type: in vivo, human; conditions: open label active control
Excerpt: A subject's physiological response to an anti-sclerostin antibody can be gauged by monitoring bone marker levels. Bone markers are products created during the bone remodeling process and are released by bone, osteoblasts, and/or osteoclasts. Fluctuations in bone resorption and/or bone formation “marker” levels imply changes in bone remodeling/modeling. The International Osteoporosis Foundation (IOF) recommends using bone markers to monitor bone density therapies (see, e.g., Delmas et al., Osteoporos Int., Suppl. 6:S2-17 (2000), incorporated herein by reference). Markers indicative of bone resorption (or osteoclast activity) include, for example, C-telopeptide (e.g., C-terminal telopeptide of type 1 collagen (CTX) or serum cross-linked C-telopeptide), N-telopeptide (N-terminal telopeptide of type 1 collagen (NTX)), deoxypyridinoline (DPD), pyridinoline, urinary hydroxyproline, galactosyl hydroxylysine, and tartrate-resistant acid phosphatase (e.g., serum tartrate-resistant acid phosphatase isoform 5b). Bone formation/mineralization markers include, but are not limited to, bone-specific alkaline phosphatase (BSAP), peptides released from N- and C-terminal extension of type I procollagen (P1NP, PICP), and osteocalcin (OC). Several kits are commercially-available to detect and quantify markers in clinical samples, such as urine and blood.
A multicenter, international, randomized, parallel group study in postmenopausal women with low BMD at lumbar vertebrae, total hip or femoral neck was conducted. 419 subjects were randomized to receive one of five regimens of an anti-sclerostin antibody, placebo, open label alendronate (ALN), or open label teriparatide (TPTD) for 12 months. The placebo group was further randomized to match the schedules corresponding to the five anti-sclerostin antibody regimens. […] BMD was measured by DXA. […]

[2] = system: postmenopausal women with low BMD at lumbar vertebrae, total hip or femoral neck; assay: Randomized multicenter study, BMD measured by DXA in postmenopausal women with low BMD; assay type: in vivo, human; conditions: open label active control arm; for Femoral Neck BMD % Change from Baseline, Mean / Lumbar Vertebrae BMD % Change from Baseline, Mean / Total Hip BMD % Change from Baseline, Mean: 12 months; for mean percent change of lumbar vertebrae BMD from pretreatment baseline: month 6; for mean percent change of distal ⅓ radius BMD from pretreatment baseline: month 12
Experimental: This example describes in vivo studies wherein an anti-sclerostin antibody improved bone mineral density in postmenopausal women.
A multicenter, international, randomized, parallel group study in postmenopausal women with low BMD at lumbar vertebrae, total hip or femoral neck was conducted. 419 subjects were randomized to receive one of five regimens of an anti-sclerostin antibody, placebo, open label alendronate (ALN), or open label teriparatide (TPTD) for 12 months. The placebo group was further randomized to match the schedules corresponding to the five anti-sclerostin antibody regimens. The subject distribution was as follows: 52 subjects to the placebo arm, 51 subjects to ALN arm, 55 subjects to TPTD arm, and 51, 54, 51, 53, and 52 subjects to anti-sclerostin antibody 70 mg QM, 140 mg Q3M, 140 mg QM, 210 mg Q3M, and 210 mg QM arms, respectively. 383 subjects completed the 12 months of study. Among all subjects enrolled in the study, the mean age was 66.8 years old, 86.4% of subjects were Caucasian, and the mean pretreatment baseline lumbar vertebrae and total hip BMD T-scores were −2.29 and −1.53, respectively. The primary analysis occurred after all subjects had the opportunity to complete the month 12 study visit. BMD was measured by DXA. Overall, the proportions of patients reporting adverse events were balanced between placebo arm and anti-sclerostin antibody arms.

NCCCC(O)(P(=O)(O)O)P(=O)(O)O [ALN, alendronate]
adaptive response (bone formation markers falling to approximately baseline within two to six months) [1]: not observed | Femoral Neck BMD % Change from Baseline, Mean [2]: 1.2% | Lumbar Vertebrae BMD % Change from Baseline, Mean [2]: 4.1% | Total Hip BMD % Change from Baseline, Mean [2]: 1.9% | mean percent change of lumbar vertebrae BMD from pretreatment baseline [2]: 2.6% | mean percent change of distal ⅓ radius BMD from pretreatment baseline [2]: −0.3%

CC[C@H](C)[C@H](NC(=O)[C@H](CCC(=O)O)NC(=O)[C@H](CO)NC(=O)[C@@H](NC(=O)[C@@H](N)CO)C(C)C)C(=O)N[C@@H](CCC(N)=O)C(=O)N[C@@H](CC(C)C)C(=O)N[C@@H](CCSC)C(=O)N[C@@H](Cc1cnc[nH]1)C(=O)N[C@@H](CC(N)=O)C(=O)N[C@@H](CC(C)C)C(=O)NCC(=O)N[C@@H](CCCCN)C(=O)N[C@@H](Cc1cnc[nH]1)C(=O)N[C@@H](CC(C)C)C(=O)N[C@@H](CC(N)=O)C(=O)N[C@@H](CO)C(=O)N[C@@H](CCSC)C(=O)N[C@@H](CCC(=O)O)C(=O)N[C@@H](CCCN=C(N)N)C(=O)N[C@H](C(=O)N[C@@H](CCC(=O)O)C(=O)N[C@@H](Cc1c[nH]c2ccccc12)C(=O)N[C@@H](CC(C)C)C(=O)N[C@@H](CCCN=C(N)N)C(=O)N[C@@H](CCCCN)C(=O)N[C@@H](CCCCN)C(=O)N[C@@H](CC(C)C)C(=O)N[C@@H](CCC(N)=O)C(=O)N[C@@H](CC(=O)O)C(=O)N[C@H](C(=O)N[C@@H](Cc1cnc[nH]1)C(=O)N[C@@H](CC(N)=O)C(=O)N[C@@H](Cc1ccccc1)C(=O)O)C(C)C)C(C)C [TPTD, teriparatide]
adaptive response (bone formation markers falling to approximately baseline within two to six months) [1]: not observed | bone formation markers over the course of treatment [1]: remained elevated | Femoral Neck BMD % Change from Baseline, Mean [2]: 1.1% | Lumbar Vertebrae BMD % Change from Baseline, Mean [2]: 7.1% | Total Hip BMD % Change from Baseline, Mean [2]: 1.3% | mean percent change of lumbar vertebrae BMD from pretreatment baseline [2]: 4.8% | mean percent change of distal ⅓ radius BMD from pretreatment baseline [2]: −1.7%
